One experiment relates to His6-GlgXE378A. The experiment in a line: BCA reducing-end enzyme assay, GlgXE378A. In kind it is biochemical, Streptomyces venezuelae. The settings on record: 50 µM c-di-GMP, 0.05% glycogen from rabbit, 1 µM enzyme. The protocol: (§1) Fig. 2 c-di-GMP stimulates glycogen breakdown activity of GlgX in vitro. a Bicinchoninic acid (BCA) in vitro enzyme assay. The purple copper bicinchoninate complex indicating GlgX-mediated generation of reducing ends in glycogen was quantified by photometric measurements at 562 nm. A562 values were converted into reducing ends [µM glucose equivalents] based on D-glucose as a standard. Reactions contained 0.05% (w/v) glycogen from rabbit, 1 µM GlgX and increasing concentrations of c-di-GMP (0–100 µM). Source data are provided as a Source data file. b BCA assay containing 0.05% of either glycogen from rabbit, pullulan, amylopectin from maize or amylose from potato as substrates. Where appropriate, 1 µM GlgX or 50 µM c-di-GMP were added to the reaction samples. Source data are provided as a Source data file. c BCA assay as in a with or without c-di-GMP (50 µM), 0.05% glycogen from rabbit (S) and 1 µM Vnz25270, GlgX, the active site mutants GlgXD342A, GlgXE378A, GlgXD342A+E378A, or the c-di-GMP-binding mutant variant GlgXDETR49-52 as indicated. […]
(§2) Hydrolysis of carbohydrates was assessed in vitro by measuring the accumulation of reducing sugar ends using the BCA assay[42] and D-glucose as a standard for calibration (Supplementary Fig. 11). […] 125 μl sample aliquots were transferred in duplicates to a 96 well plate and the absorbance at 562 nm was measured using a plate reader.

Another experiment concerns His6-GlgXDETR49-52. The experiment in a line: BCA reducing-end enzyme assay, GlgXDETR49-52. Format: biochemical, Streptomyces venezuelae. The settings on record: 50 µM c-di-GMP, 0.05% glycogen from rabbit, 1 µM enzyme. The protocol:
as §1, §2

The subject of another experiment is GlgXE47A-R49A. The experiment is described as follows: Fluorescence polarization binding, GlgXE47A-R49A. Further details: species or system Streptomyces venezuelae. From the text: Fig. 5 Structure of the S. venezuelae GlgX-c-di-GMP complex. a Ribbon diagram of the S. venezuelae GlgX-c-di-GMP complex with one GlgX subunit colored cyan and the other salmon. Shown as sticks are the c-di-GMP molecules bound at each end of the antiparallel dimer. […] There was clear density for each c-di-GMP molecule. b Close up of the GlgX-c-di-GMP binding interaction. Key residues mediating contacts to the c-di-GMP are shown as sticks and labeled. Hydrogen bonds from GlgX residues that specify binding to the guanine are indicated by yellow dashed lines. c Fluorescence polarization (FP) binding isotherm showing interaction of GlgX, GlgXE47A-R49A and GlgXR438A-R579A for F-c-di-GMP in red, green and blue respectively. Also shown is the binding isotherm for GlgX binding to F-c-di-AMP in black. […] The y-axis and x-axis are millipolarization (mP) units and GlgX concentration (μM), respectively. Shown are representative binding curves for each. The experiments were performed in technical triplicates and the error between measurements reported. […]
Thus, we used this F-tagged c-di-GMP in fluorescence polarization (FP) studies to quantify the interaction between GlgX and c-di-GMP. […] To ensure that the presence of the fluorescent tag was not impacting the GlgX interaction with c-di-GMP we used microscale thermophoresis (MST) to quantify c-di-GMP binding to GlgX. […]
On the technique in general: Polarisation of emitted light reports the rotation of a fluorescent probe.

As to `Nc1nc2c(ncn2[C@@H]2O[C@@H]3CO[P@](=O)(O)O[C@H]4[C@@H](O)[C@H](n5cnc6c(=O)[nH]c(N)nc65)O[C@@H]4CO[P@](=O)(O)O[C@H]3[C@H]2O)c(=O)[nH]1` [c-di-GMP, bis-(3′−5′)-cyclic diguanosine monophosphate], in the experiment on His6-GlgXE378A, the “stimulation of enzyme activity by c-di-GMP” value was “could not be stimulated”. In the experiment on His6-GlgXDETR49-52, the “effect of c-di-GMP on hydrolytic activity” value is “remained at basal levels”. Also, the “binding to mutant in FP” value in the experiment on GlgXE47A-R49A is listed as “weak, nonsaturable binding”.

The record behind these values is PMC9530166, “Allosteric regulation of glycogen breakdown by the second messenger cyclic di-GMP” (Nature Communications, 2022).
